Reference: ChEMBL document CHEMBL1201862, “PubChem BioAssay data set” (2004)
The source made the active and inactive calls.

How the values were obtained:
[1] = target: Ras and Rab interactor 1/Tyrosine-protein kinase ABL1 (Homo sapiens, UniProt P00519+Q13671); type: functional;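 further: biochemical TR-FRET dose-response test measuring inhibition of binding between Rin1 and Abl proteins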
[2] = bead-based luminescence quenchers, dual-tagged ARNT – biochemical, AlphaScreen, cherry-pick, artefact control for ARNT-TACC3 interaction inhibitor project, dose response (AID 651705); type: functional;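 further: AlphaScreen bead proximity signal that flags compounds interfering with the detection technology; potency reflects signal decrease which marks the compound as an assay artifact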
[3] = target: Potassium voltage-gated channel subfamily KQT member 2 (Rattus norvegicus, UniProt O88943); test: blockers of KCNQ2 channel current – cell-based, automated electrophysiology, set II, rat KCNQ2, dose response (AID 588637); type: functional
[4] = inhibition of ARNT PAS-B/TACC3 complex formation – biochemical, AlphaScreen, cherry-picked samples, confirmation (AID 651703); type: functional, Homo sapiens;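 further: His-tagged ARNT PAS-B domain paired with GST-TACC3 E629A dimer coactivator fragment; potency of inhibitors that break up the complex and lower AlphaScreen signal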
Interleukin-8 [5] = target: T1, Interleukin-8 (Homo sapiens, UniProt P10145); test: Dose Response confirmation of uHTS small molecule hits for cystic fibrosis induced NFkb Inhibitors in a PAF-induced IL8 counterscreen.; type: functional; settings: read-out: IC50_Mean
T1 sequence (P10145 whole entry): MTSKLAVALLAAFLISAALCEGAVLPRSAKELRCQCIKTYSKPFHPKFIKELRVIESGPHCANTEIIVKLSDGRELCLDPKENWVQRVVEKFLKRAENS

Interleukin-8 [6] = target: T1, Interleukin-8; test: Dose Response confirmation of uHTS small molecule hits for cystic fibrosis induced NFkb Inhibitors in a TNFa-induced IL8 counterscreen.; type: functional; settings: read-out: IC50_Mean
Protein RecA = target: T2, Protein RecA (Mycobacterium tuberculosis, UniProt P9WHJ3); test: Fluorescence Cell-Free Homogeneous Dose Retest to Identify Inhibitors of RecA-Intein Splicing Activity. [Related pubchem assays (depositor defined):AID2097, AID2223, AID489010, AID492950]; type: functional
T2 sequence (P9WHJ3 whole entry): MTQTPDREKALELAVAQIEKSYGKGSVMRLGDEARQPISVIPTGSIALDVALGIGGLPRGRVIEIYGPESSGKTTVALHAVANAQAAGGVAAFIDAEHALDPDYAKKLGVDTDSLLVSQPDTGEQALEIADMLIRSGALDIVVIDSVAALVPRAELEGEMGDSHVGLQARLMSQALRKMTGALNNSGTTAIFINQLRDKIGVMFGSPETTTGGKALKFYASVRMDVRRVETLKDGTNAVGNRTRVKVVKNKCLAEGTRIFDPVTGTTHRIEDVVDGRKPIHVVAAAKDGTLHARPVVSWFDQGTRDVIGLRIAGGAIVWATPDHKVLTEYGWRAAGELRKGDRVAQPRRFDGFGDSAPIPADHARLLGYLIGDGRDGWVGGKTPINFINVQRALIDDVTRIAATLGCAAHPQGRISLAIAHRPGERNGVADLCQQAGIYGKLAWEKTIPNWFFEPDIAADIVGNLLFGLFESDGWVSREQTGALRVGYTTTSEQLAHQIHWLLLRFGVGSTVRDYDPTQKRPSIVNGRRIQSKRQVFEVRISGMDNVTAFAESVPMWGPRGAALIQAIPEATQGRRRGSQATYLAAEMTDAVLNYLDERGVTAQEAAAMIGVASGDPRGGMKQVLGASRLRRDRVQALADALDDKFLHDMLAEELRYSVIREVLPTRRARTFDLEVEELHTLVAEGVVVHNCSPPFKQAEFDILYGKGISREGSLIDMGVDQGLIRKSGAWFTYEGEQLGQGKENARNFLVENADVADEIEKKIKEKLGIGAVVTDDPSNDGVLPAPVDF

[7] = NIH3T3 cell viability loss – ATP luminescence, mouse fibroblasts, counter-screen, dose response (AID 2010); type: functional, cell-based;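 further: cells exposed to compound for about 90 hours before reading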
[8] = target: T3, Replicative DNA helicase DnaB (Mycobacterium tuberculosis, UniProt P9WMR3); test: DnaB intein splicing inhibitors, dose response, biochemical, cell-free fluorescence (AID 449749); type: functional
T3 sequence (P9WMR3 whole entry): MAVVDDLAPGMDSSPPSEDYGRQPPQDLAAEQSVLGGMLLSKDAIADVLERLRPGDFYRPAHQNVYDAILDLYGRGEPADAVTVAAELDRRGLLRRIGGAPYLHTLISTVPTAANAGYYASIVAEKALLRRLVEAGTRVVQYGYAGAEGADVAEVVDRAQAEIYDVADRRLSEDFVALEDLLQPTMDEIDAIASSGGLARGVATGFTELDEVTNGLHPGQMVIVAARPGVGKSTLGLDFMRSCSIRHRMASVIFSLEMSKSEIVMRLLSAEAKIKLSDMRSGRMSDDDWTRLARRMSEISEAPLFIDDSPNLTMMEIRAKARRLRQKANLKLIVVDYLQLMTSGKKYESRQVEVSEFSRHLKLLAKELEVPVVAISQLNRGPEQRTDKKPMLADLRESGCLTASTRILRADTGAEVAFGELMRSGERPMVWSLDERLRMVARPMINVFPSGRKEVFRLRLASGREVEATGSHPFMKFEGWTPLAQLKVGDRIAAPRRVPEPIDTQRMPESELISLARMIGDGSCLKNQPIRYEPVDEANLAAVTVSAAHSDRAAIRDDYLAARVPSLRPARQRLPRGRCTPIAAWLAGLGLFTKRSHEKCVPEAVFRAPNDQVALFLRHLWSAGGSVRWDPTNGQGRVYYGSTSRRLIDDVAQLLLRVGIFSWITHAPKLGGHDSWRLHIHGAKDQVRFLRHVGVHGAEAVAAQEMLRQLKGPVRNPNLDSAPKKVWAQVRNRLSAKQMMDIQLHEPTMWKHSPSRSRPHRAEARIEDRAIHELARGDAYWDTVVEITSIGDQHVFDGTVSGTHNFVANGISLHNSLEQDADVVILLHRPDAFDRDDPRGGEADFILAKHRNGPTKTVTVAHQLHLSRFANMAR

Fatty acid synthase [9] = target: T4, Fatty acid synthase (Homo sapiens, UniProt P49327); test: inhibition of human FAS-TE enzyme activity – biochemical, kinetic fluorescence intensity, dose response (AID 624326); type: functional;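 further: rate of fluorescence rise from hydrolysis of a fluorogenic O-methyl fluorescein ester substrate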
T4 sequence (P49327 whole entry): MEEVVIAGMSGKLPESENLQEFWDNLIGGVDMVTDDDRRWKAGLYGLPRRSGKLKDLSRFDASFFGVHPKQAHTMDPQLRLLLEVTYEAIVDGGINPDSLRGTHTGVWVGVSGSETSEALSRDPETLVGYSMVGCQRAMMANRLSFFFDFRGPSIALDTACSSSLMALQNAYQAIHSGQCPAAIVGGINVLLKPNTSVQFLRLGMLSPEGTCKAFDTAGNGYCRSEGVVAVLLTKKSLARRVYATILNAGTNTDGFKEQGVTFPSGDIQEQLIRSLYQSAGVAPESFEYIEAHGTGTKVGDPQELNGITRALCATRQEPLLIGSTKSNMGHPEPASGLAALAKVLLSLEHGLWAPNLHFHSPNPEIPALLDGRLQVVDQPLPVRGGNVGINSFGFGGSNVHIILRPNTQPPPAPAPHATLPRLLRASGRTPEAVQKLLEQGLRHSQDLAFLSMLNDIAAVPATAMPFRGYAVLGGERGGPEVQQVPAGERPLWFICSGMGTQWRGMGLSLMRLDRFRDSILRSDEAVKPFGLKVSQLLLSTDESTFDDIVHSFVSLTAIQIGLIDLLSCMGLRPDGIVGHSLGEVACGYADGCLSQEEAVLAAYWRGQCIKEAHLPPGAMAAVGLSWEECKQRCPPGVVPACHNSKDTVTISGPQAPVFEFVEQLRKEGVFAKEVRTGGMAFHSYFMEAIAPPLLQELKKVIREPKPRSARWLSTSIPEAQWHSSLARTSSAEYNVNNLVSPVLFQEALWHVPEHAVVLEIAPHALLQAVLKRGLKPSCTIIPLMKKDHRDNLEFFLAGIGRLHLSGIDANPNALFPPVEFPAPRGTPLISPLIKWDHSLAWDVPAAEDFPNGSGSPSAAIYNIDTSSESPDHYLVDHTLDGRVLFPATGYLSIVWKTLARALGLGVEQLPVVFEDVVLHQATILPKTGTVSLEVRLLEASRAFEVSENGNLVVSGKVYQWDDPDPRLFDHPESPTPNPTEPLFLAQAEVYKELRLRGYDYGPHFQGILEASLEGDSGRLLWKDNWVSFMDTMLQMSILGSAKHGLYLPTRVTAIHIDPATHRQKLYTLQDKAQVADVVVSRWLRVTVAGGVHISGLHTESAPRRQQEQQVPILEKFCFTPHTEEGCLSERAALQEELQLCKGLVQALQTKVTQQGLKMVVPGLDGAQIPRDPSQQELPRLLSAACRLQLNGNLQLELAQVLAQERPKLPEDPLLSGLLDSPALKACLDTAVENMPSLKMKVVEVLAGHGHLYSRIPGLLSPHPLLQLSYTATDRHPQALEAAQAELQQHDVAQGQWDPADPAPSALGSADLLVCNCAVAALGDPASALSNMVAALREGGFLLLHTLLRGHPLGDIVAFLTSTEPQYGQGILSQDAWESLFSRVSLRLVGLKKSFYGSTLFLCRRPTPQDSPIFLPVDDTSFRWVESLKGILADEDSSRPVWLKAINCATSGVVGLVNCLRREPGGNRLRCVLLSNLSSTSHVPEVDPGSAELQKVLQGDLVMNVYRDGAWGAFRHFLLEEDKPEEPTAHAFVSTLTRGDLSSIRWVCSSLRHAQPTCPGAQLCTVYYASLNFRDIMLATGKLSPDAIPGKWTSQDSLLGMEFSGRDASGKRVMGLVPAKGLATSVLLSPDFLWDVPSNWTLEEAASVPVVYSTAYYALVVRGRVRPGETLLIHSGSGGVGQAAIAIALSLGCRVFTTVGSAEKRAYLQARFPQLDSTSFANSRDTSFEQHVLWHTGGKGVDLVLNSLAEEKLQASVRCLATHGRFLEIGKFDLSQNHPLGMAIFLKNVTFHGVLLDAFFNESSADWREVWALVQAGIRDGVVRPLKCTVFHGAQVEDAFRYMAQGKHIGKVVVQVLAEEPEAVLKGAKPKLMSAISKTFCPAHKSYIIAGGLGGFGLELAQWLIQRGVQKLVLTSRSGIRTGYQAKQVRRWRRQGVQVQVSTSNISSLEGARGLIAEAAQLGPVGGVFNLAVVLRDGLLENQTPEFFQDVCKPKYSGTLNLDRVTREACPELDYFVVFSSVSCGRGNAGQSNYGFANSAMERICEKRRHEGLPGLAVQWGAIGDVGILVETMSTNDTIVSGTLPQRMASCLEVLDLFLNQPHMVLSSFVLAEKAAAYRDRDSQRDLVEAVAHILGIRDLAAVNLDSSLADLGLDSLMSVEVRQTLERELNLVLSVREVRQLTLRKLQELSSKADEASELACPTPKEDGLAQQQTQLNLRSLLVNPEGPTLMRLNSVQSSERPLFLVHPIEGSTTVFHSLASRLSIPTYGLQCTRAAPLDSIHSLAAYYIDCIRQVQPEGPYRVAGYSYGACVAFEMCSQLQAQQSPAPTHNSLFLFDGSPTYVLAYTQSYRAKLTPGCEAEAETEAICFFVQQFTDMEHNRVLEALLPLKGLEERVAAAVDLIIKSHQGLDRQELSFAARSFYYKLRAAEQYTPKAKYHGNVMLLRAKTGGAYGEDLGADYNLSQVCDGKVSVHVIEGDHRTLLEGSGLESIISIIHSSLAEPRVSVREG

[10] = luciferase reporter signal suppression in cells – H4 neuroglioma cells, luminescence, dose response (AID 1990); type: functional, cell-based
HeLa = test: Cytotoxicity counterscreen assay for transcriptional activators of heat shock protein 70 (Hsp70). [Related pubchem assays: 1203, 1252 ]; type: functional; settings: Homo sapiens;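 further: cells exposed to compound for 16 hours before readout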
CHO = CHO cell viability loss, potency – luminescence, cytotoxicity control for TLR9-MyD88 binding inhibitor project, dose response (AID 588339); type: functional, cell-based, hamster; settings: Cricetulus griseus;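 further: CHO cells stably coexpressing TLR9 and MyD88 fusions from primary screen; compound exposure lasted 48 hours before viability readout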
Fatty acid synthase [11] = target: T4, Fatty acid synthase; test: inhibition of human FAS-TE enzyme activity – biochemical, endpoint fluorescence intensity, uHTS hits, dose response (AID 624327); type: functional;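 further: fluorescence from hydrolysis of an O-methyl fluorescein acyl ester substrate by the enzyme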
[12] = Luminescence Cell-Based Dose Response HTS to Identify Inhibitors of 5'UTR Stem-Loop Driven Prion Protein mRNA Translation in H4 Neuroglioblastoma Cells. [Related pubchem assays: 1827 (Project Summary), 1813 (Primary HTS)]; type: functional
[13] = alpha-synuclein stem-loop luciferase translation blockers – H4 neuroglioma cells, luminescence, confirmation (AID 1988); type: functional, cell-based
Beta Lactamase = Beta Lactamase (Pseudomonas aeruginosa, UniProt Q932Y6); test: BLA reporter interference, concentration series – BLA reporter cells, FRET fluorescence, artefact control for TLR9-MyD88 binding inhibitor project, dose response (AID 588341); type: cell-based;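 further: cell based assay in CHO-K1 cells stably expressing beta-lactamase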
[14] = Trypanosoma cruzi growth suppression in host cells – NIH3T3 host cells, beta-gal luminescence, confirmation (AID 2044); type: functional, cell-based;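 further: intracellular parasites grown in NIH/3T3 mouse fibroblasts as host cells; luminescent beta-galactosidase reporter signal from transgenic T. cruzi replicating inside host cells; inhibitors lower the luminescence signal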
[15] = target: Insulin-like growth factor 1 receptor (Homo sapiens, UniProt P08069); test: Navigating the Kinome. Panel member name: IGF1R; type: functional
[16] = target: Protein kinase C theta type (Homo sapiens, UniProt Q04759); test: Navigating the Kinome. Panel member name: PRKCQ; type: functional
[17] = target: Dual specificity protein kinase CLK4 (Homo sapiens, UniProt Q9HAZ1); type: functional
[18] = target: Leukocyte tyrosine kinase receptor (Homo sapiens, UniProt P29376); test: Navigating the Kinome. Panel member name: LTK; type: functional
[19] = target: High affinity nerve growth factor receptor (Homo sapiens, UniProt P04629); type: functional;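 further: NTRK1 tested as one member of a kinome-wide profiling panel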
Chain of High affinity nerve growth factor receptor (P04629 whole entry): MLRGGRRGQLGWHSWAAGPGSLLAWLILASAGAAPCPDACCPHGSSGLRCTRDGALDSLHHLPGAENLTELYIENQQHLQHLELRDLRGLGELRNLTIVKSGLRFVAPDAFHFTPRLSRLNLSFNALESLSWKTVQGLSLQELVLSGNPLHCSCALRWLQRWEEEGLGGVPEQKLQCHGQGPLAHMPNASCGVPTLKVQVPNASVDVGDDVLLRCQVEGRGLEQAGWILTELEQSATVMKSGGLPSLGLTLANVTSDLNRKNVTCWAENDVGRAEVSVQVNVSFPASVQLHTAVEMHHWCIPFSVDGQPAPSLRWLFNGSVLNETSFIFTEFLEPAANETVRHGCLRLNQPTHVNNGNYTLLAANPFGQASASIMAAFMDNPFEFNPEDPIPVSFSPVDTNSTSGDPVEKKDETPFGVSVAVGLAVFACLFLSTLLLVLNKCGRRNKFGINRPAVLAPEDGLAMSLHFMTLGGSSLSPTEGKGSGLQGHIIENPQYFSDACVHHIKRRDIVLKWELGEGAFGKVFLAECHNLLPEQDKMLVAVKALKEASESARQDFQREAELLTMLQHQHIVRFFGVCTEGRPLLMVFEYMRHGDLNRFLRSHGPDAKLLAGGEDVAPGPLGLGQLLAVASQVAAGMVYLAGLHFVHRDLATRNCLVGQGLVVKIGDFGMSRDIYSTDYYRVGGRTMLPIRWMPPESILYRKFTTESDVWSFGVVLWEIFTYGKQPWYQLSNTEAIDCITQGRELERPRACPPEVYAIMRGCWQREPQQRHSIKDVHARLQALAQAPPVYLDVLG

[20] = target: Mitogen-activated protein kinase 9 (Homo sapiens, UniProt P45984); type: functional;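 further: value from a kinome panel profiling assay, MAPK9 panel entry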
Chain of Mitogen-activated protein kinase 9 (P45984 whole entry): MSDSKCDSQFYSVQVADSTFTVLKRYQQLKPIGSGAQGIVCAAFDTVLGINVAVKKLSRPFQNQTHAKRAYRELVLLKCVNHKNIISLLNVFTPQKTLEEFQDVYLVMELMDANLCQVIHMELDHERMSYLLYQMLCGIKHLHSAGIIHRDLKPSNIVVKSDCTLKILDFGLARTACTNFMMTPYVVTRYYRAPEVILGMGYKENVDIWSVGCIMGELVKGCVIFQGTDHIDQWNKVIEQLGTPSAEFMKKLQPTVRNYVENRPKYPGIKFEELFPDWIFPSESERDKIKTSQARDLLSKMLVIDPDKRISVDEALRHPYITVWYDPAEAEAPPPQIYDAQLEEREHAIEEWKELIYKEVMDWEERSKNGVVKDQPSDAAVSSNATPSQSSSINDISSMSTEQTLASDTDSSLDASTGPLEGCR

[21] = target: Dual specificity mitogen-activated protein kinase kinase 2 (Homo sapiens, UniProt P36507); test: Navigating the Kinome. Panel member name: MAP2K2; type: functional
[22] = target: Ribosomal protein S6 kinase alpha-3 (Homo sapiens, UniProt P51812); type: functional;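 further: measured within a kinome-wide profiling panel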
[23] = target: T5, cAMP-dependent protein kinase catalytic subunit PRKX (Homo sapiens, UniProt P51817); type: functional
T5 sequence (P51817 whole entry): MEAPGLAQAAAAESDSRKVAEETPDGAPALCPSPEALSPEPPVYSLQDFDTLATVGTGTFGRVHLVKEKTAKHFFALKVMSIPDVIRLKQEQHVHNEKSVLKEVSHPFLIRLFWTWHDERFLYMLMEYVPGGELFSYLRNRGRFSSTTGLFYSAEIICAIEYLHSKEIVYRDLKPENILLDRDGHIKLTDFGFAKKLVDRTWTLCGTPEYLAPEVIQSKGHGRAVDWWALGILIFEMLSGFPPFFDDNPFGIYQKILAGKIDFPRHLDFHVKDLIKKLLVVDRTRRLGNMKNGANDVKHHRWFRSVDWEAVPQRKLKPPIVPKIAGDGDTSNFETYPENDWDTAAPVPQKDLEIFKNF

Activated CDC42 kinase 1 = Activated CDC42 kinase 1 (Homo sapiens, UniProt Q07912); test: Navigating the Kinome. Panel member name: ACK1; type: functional
[24] = target: Fibroblast growth factor receptor 1 (Homo sapiens, UniProt P11362); type: functional
Chain of Fibroblast growth factor receptor 1 (P11362 whole entry): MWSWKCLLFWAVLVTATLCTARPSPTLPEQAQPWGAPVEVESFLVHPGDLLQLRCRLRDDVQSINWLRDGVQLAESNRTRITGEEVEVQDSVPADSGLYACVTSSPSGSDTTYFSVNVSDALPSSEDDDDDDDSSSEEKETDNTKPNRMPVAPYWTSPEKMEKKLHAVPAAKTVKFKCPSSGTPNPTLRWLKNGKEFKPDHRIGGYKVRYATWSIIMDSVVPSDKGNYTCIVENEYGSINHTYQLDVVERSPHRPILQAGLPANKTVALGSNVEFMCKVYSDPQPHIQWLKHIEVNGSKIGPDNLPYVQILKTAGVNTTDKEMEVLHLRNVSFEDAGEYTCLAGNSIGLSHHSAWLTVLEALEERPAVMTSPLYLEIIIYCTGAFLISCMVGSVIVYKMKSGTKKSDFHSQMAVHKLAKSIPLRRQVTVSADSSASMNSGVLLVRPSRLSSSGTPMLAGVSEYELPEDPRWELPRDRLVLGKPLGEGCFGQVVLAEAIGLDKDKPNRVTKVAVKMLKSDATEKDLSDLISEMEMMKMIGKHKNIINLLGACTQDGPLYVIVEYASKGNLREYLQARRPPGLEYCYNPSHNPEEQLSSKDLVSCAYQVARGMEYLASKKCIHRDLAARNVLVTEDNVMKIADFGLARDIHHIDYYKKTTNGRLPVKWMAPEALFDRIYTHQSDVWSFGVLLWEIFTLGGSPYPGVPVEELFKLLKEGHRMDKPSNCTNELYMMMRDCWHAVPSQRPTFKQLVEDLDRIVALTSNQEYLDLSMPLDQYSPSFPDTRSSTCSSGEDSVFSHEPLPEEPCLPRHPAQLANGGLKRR

[25] = target: Platelet-activating factor acetylhydrolase (Mus musculus, UniProt Q60963); test: Late stage assay provider results from the probe development effort to identify inhibitors of pPAFAH: fluorescence-based dose-response biochemical gel-based competitive Activity-Based Protein Profiling (ABPP) assay for SAR compounds.; type: functional
Chain of Platelet-activating factor acetylhydrolase (Q60963 whole entry): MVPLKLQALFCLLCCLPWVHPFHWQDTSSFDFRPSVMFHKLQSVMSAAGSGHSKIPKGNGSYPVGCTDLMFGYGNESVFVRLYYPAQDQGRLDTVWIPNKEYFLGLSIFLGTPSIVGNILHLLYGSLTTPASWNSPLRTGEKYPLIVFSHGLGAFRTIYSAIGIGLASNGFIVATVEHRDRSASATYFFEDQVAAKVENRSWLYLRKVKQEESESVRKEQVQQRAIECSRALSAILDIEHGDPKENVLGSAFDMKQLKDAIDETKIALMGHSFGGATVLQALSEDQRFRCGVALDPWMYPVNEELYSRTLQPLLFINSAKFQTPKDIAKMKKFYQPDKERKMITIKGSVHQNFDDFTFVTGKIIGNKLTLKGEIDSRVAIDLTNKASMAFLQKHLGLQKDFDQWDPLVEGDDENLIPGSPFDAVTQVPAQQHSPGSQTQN

Question: For `CC1(c2nnc(-c3ccncc3)o2)CC(c2ccc(F)cc2)=NO1` (stereo not given), which IC50 [1] is on record?
Answer: 10.8 µM (inactive)

Question: For `O=C(NCCCn1ccnc1)Nc1cccc(Cl)c1`, which AC50 [2] is on record?
Answer: 116 µM (active)

Question: With `Cc1ccc(-c2cc(C(=O)N3CC(C)OC(C)C3)c3ccccc3n2)o1` (stereo not given) as the compound, how does the IC50 [3] read?
Answer: 0.61 µM (active)

Question: With `O=C(COC(=O)c1ccc([N+](=O)[O-])o1)Nc1ccc(F)cc1` as the compound, how does the AC50 [4] read?
Answer: 109 µM (active)

Question: With `Nc1nccc(SCc2ccc(Cl)cc2Cl)n1` as the compound, how does the IC50 (Interleukin-8 [5]) read?
Answer: 6.67 µM (active)

Question: What about the IC50 (Interleukin-8 [6]) of the same compound?
Answer: > 79 µM (inactive)

Question: Which results are given for `O=Cc1s/c(=N\S(=O)(=O)c2ccccc2)n(CCCCl)c1Cl`?
Answer: EC50 (Protein RecA): 34.9 µM (active); EC50 [7]: 2.82 µM (active); AC50 [8]: 4.19 µM (active); IC50 (Fatty acid synthase [9]): 3.15 µM (active); EC50 [10]: > 60 µM (not active); CC50 (HeLa): > 3.67 µM (not active); IC50 (CHO): 1.03 µM (active); IC50 (Fatty acid synthase [11]): 6.11 µM (active); EC50 [12]: > 120 µM (not active); EC50 [13]: 9.57 µM (active); IC50 (Beta Lactamase): 19.5 µM (inactive); EC50 [14]: 1.39 µM (active)

Question: For `Nc1nccc2nc(-c3ccccc3)cn12`, which Ki [15] is on record?
Answer: 39.8 µM (active)

Question: And the Ki [16]?
Answer: 50.1 µM (active)

Question: And the Ki [17]?
Answer: 79.4 µM (active)

Question: And the Ki [18]?
Answer: 50.1 µM (active)

Question: And the Ki [19]?
Answer: 31.6 µM (active)

Question: And the Ki [20]?
Answer: 100 µM (active)

Question: And the Ki [21]?
Answer: 79.4 µM (active)

Question: What about the Ki [22] of the same compound?
Answer: 50.1 µM (active)

Question: What about the Ki [23] of the same compound?
Answer: 79.4 µM (active)

Question: And the Ki (Activated CDC42 kinase 1)?
Answer: 15.8 µM (active)

Question: And the Ki [24]?
Answer: 79.4 µM (active)

Question: With `Cc1cc(N2CCN(C(=O)Oc3ccc(-c4ccccc4)cc3)CC2)c2ccccc2n1` as the compound, how does the IC50 [25] read?
Answer: 0.091 µM (active)
